# System: NCI-H929 cells
# Assay: Anti proliferative activity in NCI-H929 cell line by Cell Titer Glo assay
# Format: cell-based
# Details: Homo sapiens, 72 h, 3 days compound incubation, CellTiter Glo, read-out: Anti-proliferative activity IC50 group (NCI-H929 cells)
# Procedure: Determination of Anti Proliferative Activity of Compounds in NCI-H929 and NCI-H838 Cell Lines by Cell Titer Glo® (promega) assay:
# NCI-H929 (ATCC CRL-9068) or NCI-H838 (ATCC CRL-5844) cells were seeded in 96 well plate flat black clear bottom plates (Corning, Cat. No 3904) using complete RPMI-1640 media. Next day, compounds listed in the present invention were added to cells from 10 mM stocks made in DMSO (Sigma Cat no. D2650). Each concentration of compound was tested in triplicate with DMSO concentration at a final percentage not exceeding 0.3 in the cells. After the compound incubation (3 days for H929 and 8 days for H838) assay was terminated using 50 μl of CellTiter Glo® reagent (Promega, Cat. no G7572). CellTiter Glo® Luminescent reagent determines the number of viable cells based on quantitation of ATP present which is an indicator of cell number and metabolic activity. Luminescence readings were taken in Victor-3 instrument. Percent inhibition of proliferation was calculated using formula, % inhibition=100−(luminescence value of test/luminescence value of DMSO control)*100. DMSO control (0%)=Cells in complete media with DMSO; blank=Media alone containing DMSO. IC50 was calculated using graph pad prism software.
# Herein group “A” refers to IC50 value lower than 1 μM, “B” refers to IC50 value between 1-10 μM (both inclusive) and “C” refers to IC50 value higher than 10 μM or less than 50% activity at 10 μM.
row,IC50,Compound
1,> 10 µM,Nc1nnc(-c2ccccc2O)cc1N1CCC(C(=O)NCCOCCOCCOCC(=O)Nc2cccc3c2CN(C2CCC(=O)NC2=O)C3=O)CC1 (stereo not shown) [Compound 12]
2,< 1 µM,Cc1ncsc1-c1ccc([C@H](C)NC(=O)[C@@H]2C[C@@H](O)CN2C(=O)[C@@H](NC(=O)CCCCCC(=O)N2CCN(c3cc(-c4ccccc4O)nnc3N)CC2)C(C)(C)C)cc1 [Compound 112]
3,> 10 µM,Nc1nnc(-c2ccccc2O)cc1N1CCN(CC(=O)Nc2cccc3c2CN(C2CCC(=O)NC2=O)C3=O)CC1 (stereo not shown) [Compound 42]
4,1 to 10 µM,Cc1ncsc1-c1ccc(CNC(=O)[C@@H]2C[C@@H](O)CN2C(=O)[C@@H](NC(=O)CCCCCCCCCC(=O)N2CCN(c3cc(-c4ccccc4O)nnc3N)CC2)C(C)(C)C)cc1 [Compound 35]
5,> 10 µM,Nc1nnc(-c2ccccc2O)cc1N1CCC(C(=O)NCCOCCOCCOCCOCC(=O)Nc2cccc3c2C(=O)N(C2CCC(=O)NC2=O)C3=O)CC1 (stereo not shown) [Compound 8]
6,> 10 µM,"Cc1ncsc1-c1ccc([C@H](C)NC(=O)[C@@H]2C[C@@H](O)CN2C(=O)[C@@H](NC(=O)CN2CCN(c3ccnnc3N)CC2)C(C)(C)C)cc1 [Compound 67, (2S,4R)-1-((S)-2-(2-(4-(3-aminopyridazin-4-yl)piperazin-1-yl)acetamido)-3,3-dimethylbutanoyl)-4-hydroxy-N—((S)-1-(4-(4-methylthiazol-5-yl)phenyl)ethyl)pyrrolidine-2-carboxamide]"
7,> 10 µM,Nc1nnc(-c2ccccc2O)cc1N1CCN(C(=O)COCC(=O)Nc2cccc3c2C(=O)N(C2CCC(=O)NC2=O)C3=O)CC1 (stereo not shown) [Compound 29]
8,> 10 µM,Nc1nnc(-c2ccccc2O)cc1N1CCN(C(=O)CCCCCCC(=O)Nc2cccc3c2C(=O)N(C2CCC(=O)NC2=O)C3=O)CC1 (stereo not shown) [Compound 30]
9,> 10 µM,Cc1ncsc1-c1ccc(CNC(=O)[C@@H]2C[C@@H](O)CN2C(=O)[C@@H](NC(=O)CCCC(=O)N2CCN(c3cc(-c4ccccc4O)nnc3N)CC2)C(C)(C)C)cc1 [Compound 33]
10,> 10 µM,Cc1ncsc1-c1ccc(CNC(=O)[C@@H]2C[C@@H](O)CN2C(=O)[C@@H](NC(=O)COCCOCCNC(=O)C2CCN(c3cc(-c4ccccc4O)nnc3N)CC2)C(C)(C)C)cc1 [Compound 2]
11,> 10 µM,Nc1nnc(-c2ccccc2O)cc1N1CCC(C(=O)NCCOCC(=O)Nc2cccc3c2C(=O)N(C2CCC(=O)NC2=O)C3=O)CC1 (stereo not shown) [Compound 6]
12,> 10 µM,"COC(=O)c1cc(N2CCN(CC(=O)N[C@H](C(=O)N3C[C@H](O)C[C@H]3C(=O)N[C@@H](C)c3ccc(-c4scnc4C)cc3)C(C)(C)C)CC2)c(N)nn1 [Compound 72, methyl 6-amino-5-(4-(2-(((S)-1-((2S,4R)-4-hydroxy-2-(((S)-1-(4-(4-methylthiazol-5-yl)phenyl)ethyl)carbamoyl)pyrrolidin-1-yl)-3,3-dimethyl-1-oxobutan-2-yl)amino)-2-oxoethyl)piperazin-1-yl)pyridazine-3-carboxylate]"
13,1 to 10 µM,Cc1ncsc1-c1ccc([C@H](C)NC(=O)[C@@H]2C[C@@H](O)CN2C(=O)[C@@H](NC(=O)CC2CCN(c3cc(-c4ccccc4F)nnc3N)CC2)C(C)(C)C)cc1 [Compound 97]
14,1 to 10 µM,Cc1ncsc1-c1ccc([C@H](C)NC(=O)[C@@H]2C[C@@H](F)CN2C(=O)[C@@H](NC(=O)CN2CCN(c3cc(-c4ccccc4O)nnc3N)CC2)C(C)(C)C)cc1 [Compound 107]
15,> 10 µM,COc1ccccc1-c1cc(N2CCN(CC(=O)N[C@H](C(=O)N3C[C@H](O)C[C@H]3C(=O)N[C@@H](C)c3ccc(-c4scnc4C)cc3)C(C)(C)C)CC2)c(N)nn1 [Compound 45]
16,> 10 µM,Cc1ncsc1-c1ccc(CNC(=O)[C@@H]2C[C@@H](O)CN2C(=O)[C@@H](NC(=O)COCC(=O)N2CCN(c3cc(-c4ccccc4O)nnc3N)CC2)C(C)(C)C)cc1 [Compound 31]
17,1 to 10 µM,Cc1ncsc1-c1ccc([C@H](C)NC(=O)[C@@H]2C[C@@H](O)CN2C(=O)[C@@H](NC(=O)CCCCCCC(=O)NC2CCN(c3cc(-c4ccccc4O)nnc3N)CC2)C(C)(C)C)cc1 [Compound 23]
18,1 to 10 µM,Cc1ncsc1-c1ccc(CNC(=O)[C@@H]2C[C@H](O)CN2C(=O)[C@@H](NC(=O)CN2CCN(c3cc(-c4ccccc4O)nnc3N)CC2)C(C)(C)C)cc1 [Compound 105]
19,> 10 µM,Nc1nnc(-c2ccccc2O)cc1N1CCC(NC(=O)COCC(=O)Nc2cccc3c2CN(C2CCC(=O)NC2=O)C3=O)CC1 (stereo not shown) [Compound 15]

row,IC50,Compound
1,> 10 µM,"Cc1ncsc1-c1ccc([C@H](C)NC(=O)[C@@H]2C[C@@H](O)CN2C(=O)[C@@H](NC(=O)CN2CCN(c3cc(Cl)nnc3N)CC2)C(C)(C)C)cc1 [Compound 50, (2S,4R)-1-((S)-2-(2-(4-(3-amino-6-chloropyridazin-4-yl)piperazin-1-yl)acetamido)-3,3-dimethylbutanoyl)-4-hydroxy-N—((S)-1-(4-(4-methylthiazol-5-yl)phenyl)ethyl)pyrrolidine-2-carboxamide]"
2,< 1 µM,Cc1ncsc1-c1ccc([C@H](C)NC(=O)[C@@H]2C[C@@H](O)CN2C(=O)[C@@H](NC(=O)CCCCC(=O)N2CCN(c3cc(-c4ccccc4O)nnc3N)CC2)C(C)(C)C)cc1 [Compound 110]
3,> 10 µM,Nc1nnc(-c2ccccc2O)cc1N1CCN(C(=O)COCC(=O)Nc2cccc3c2CN(C2CCC(=O)NC2=O)C3=O)CC1 (stereo not shown) [Compound 28]
4,> 10 µM,Cc1ncsc1-c1ccc([C@H](C)NC(=O)[C@@H]2C[C@@H](O)CN2C(=O)[C@@H](NC(=O)CN2CCN(c3cc(-c4ccccc4)nnc3N)CC2)C(C)(C)C)cc1 [Compound 46]
5,> 10 µM,Nc1nnc(-c2ccccc2O)cc1N1CCN(C(=O)CCCCCCC(=O)Nc2cccc3c2CN(C2CCC(=O)NC2=O)C3=O)CC1 (stereo not shown) [Compound 26]
6,> 10 µM,Nc1nnc(-c2ccccc2O)cc1N1CCN(C(=O)CCCCCCCCCC(=O)Nc2cccc3c2CN(C2CCC(=O)NC2=O)C3=O)CC1 (stereo not shown) [Compound 27]
7,> 10 µM,Cc1ncsc1-c1ccc(CNC(=O)[C@@H]2C[C@@H](O)CN2C(=O)[C@@H](NC(=O)CCCC(=O)NC2CCN(c3cc(-c4ccccc4O)nnc3N)CC2)C(C)(C)C)cc1 [Compound 20]
8,> 10 µM,"Cc1ncsc1-c1ccc(CNC(=O)[C@@H]2C[C@@H](O)CN2C(=O)[C@@H](NC(=O)COCCNC(=O)C2CCN(c3cc(-c4ccccc4O)nnc3N)CC2)C(C)(C)C)cc1 [Compound 1, 1-(3-amino-6-(2-hydroxyphenyl)pyridazin-4-yl)-N-(2-(2-(((S)-1-((2S,4R)-4-hydroxy-2-((4-(4-methylthiazol-5-yl)benzyl)carbamoyl)pyrrolidin-1-yl)-3,3-dimethyl-1-oxobutan-2-yl)amino)-2-oxoethoxy)ethyl)piperidine-4-carboxamide]"
9,> 10 µM,Cc1ncsc1-c1ccc(CNC(=O)[C@H]2C[C@H](O)CN2C(=O)[C@H](NC(=O)CCCCCCCCCC(=O)NC2CCN(c3cc(-c4ccccc4O)nnc3N)CC2)C(C)(C)C)cc1 [Compound 22]
10,> 10 µM,"Cc1ncsc1-c1ccc(CNC(=O)[C@@H]2C[C@@H](O)CN2C(=O)[C@@H](NC(=O)COCCN2CCN(c3cc(-c4ccccc4O)nnc3N)CC2)C(C)(C)C)cc1 [Compound 53, (2S,4R)-1-((S)-2-(2-(2-(4-(3-amino-6-(2-hydroxyphenyl)pyridazin-4-yl)piperazin-1-yl)ethoxy)acetamido)-3,3-dimethylbutanoyl)-4-hydroxy-N-(4-(4-methylthiazol-5-yl)benzyl)pyrrolidine-2-carboxamide]"
11,> 10 µM,Cc1ncsc1-c1ccc([C@H](C)NC(=O)[C@@H]2C[C@@H](O)CN2C(=O)[C@@H](NC(=O)CN2CCN(c3cc(-c4ccccc4Cl)nnc3N)CC2)C(C)(C)C)cc1 [Compound 89]
12,> 10 µM,"Cc1ncsc1-c1ccc([C@H](C)NC(=O)[C@@H]2C[C@@H](O)CN2C(=O)[C@@H](NC(=O)CN2CCN(c3cc(C(=O)O)nnc3N)CC2)C(C)(C)C)cc1 [Compound 73, 6-amino-5-(4-(2-(((S)-1-((2S,4R)-4-hydroxy-2-(((S)-1-(4-(4-methylthiazol-5-yl)phenyl)ethyl)carbamoyl)pyrrolidin-1-yl)-3,3-dimethyl-1-oxobutan-2-yl)amino)-2-oxoethyl)piperazin-1-yl)pyridazine-3-carboxylic acid]"
13,> 10 µM,Cc1ncsc1-c1ccc(CNC(=O)[C@@H]2C[C@@H](O)CN2C(=O)[C@@H](NC(=O)CCCCCCC(=O)NC2CCN(c3cc(-c4ccccc4O)nnc3N)CC2)C(C)(C)C)cc1 [Compound 21]
14,> 10 µM,Cc1ncsc1-c1ccc(CNC(=O)[C@@H]2C[C@@H](O)CN2C(=O)[C@@H](NC(=O)COCC(=O)NC2CCN(c3cc(-c4ccccc4O)nnc3N)CC2)C(C)(C)C)cc1 [Compound 14]
15,> 10 µM,Cc1ncsc1-c1ccc(CNC(=O)[C@@H]2C[C@@H](O)CN2C(=O)[C@@H](NC(=O)COCCOCCOCCOCCNC(=O)C2CCN(c3cc(-c4ccccc4O)nnc3N)CC2)C(C)(C)C)cc1 [Compound 3]
16,> 10 µM,Nc1nnc(-c2ccccc2O)cc1N1CCC(C(=O)NCCOCCOCC(=O)Nc2cccc3c2C(=O)N(C2CCC(=O)NC2=O)C3=O)CC1 (stereo not shown) [Compound 9]
17,> 10 µM,Cc1ncsc1-c1ccc(CNC(=O)[C@@H]2C[C@@H](O)CN2C(=O)[C@@H](NC(=O)C2CCN(c3cc(-c4ccccc4O)nnc3N)CC2)C(C)(C)C)cc1 [Compound 5]
18,> 10 µM,Nc1nnc(-c2ccccc2O)cc1N1CCC(NC(=O)CCCCCCC(=O)Nc2cccc3c2CN(C2CCC(=O)NC2=O)C3=O)CC1 (stereo not shown) [Compound 17]

# — patent US12371426B2, “Pyridazine derivatives as SMARCA2/4 degraders” (Aurigene Discovery Technologies Limited, priority 2018, dated 2025)
